Test results published in paper PMC6429507, “Triterpene-Based Carboxamides Act as Good Inhibitors of Butyrylcholinesterase” (Molecules, 2019).

How the values were obtained:
[1] = Solubility under the conditions of the assay; settings: Ellman's assay conditions
Description: (§1) In this study, carboxamides with different triterpenoic backbones (ursolic, oleanolic, maslinic, betulinic, and platanic acids), and various amine residues (Scheme 1), were investigated.
(§2) 3.1 Preparation of the solutions
(§3) Preparation of 50 mM Tris-HCl buffer solutions: Tris(hydroxymethyl)-aminomethane (606 mg) was dissolved in bidestilled water (100 mL) and adjusted with HCl to a pH of 8.0 ± 0.1. Buffers were freshly prepared and stored in the refrigerator. AChE solution 2.005 U/mL: the enzyme (271 U/mg, 0.037 mg) was dissolved in freshly prepared buffer pH 8.0 (5 mL) containing NaN3 (0.98 mg). BChE solution 2.040 U/mL: the enzyme (7.54 U/mg, 1.353 mg) was dissolved in freshly prepared buffer pH 8.0 (5 mL) containing NaN3 (0.98 mg). DTNB solution 3 mM: DTNB (23.8 mg) was dissolved in freshly prepared buffer pH 8.0 (20 mL) containing NaCl (116.8 mg) and MgCl2 (38.0 mg). ATChI solution 15 mM:
(§4) ATChI (43.4 mg) was dissolved in bidestilled water (10 mL). All solutions were stored in Eppendorf caps in the refrigerator or in the freezer, if necessary. The pure compounds were […]
(§5) dissolved in bidistilled water. The final concentrations for the enzymatic assay were obtained by diluting the stock solution with bidistilled water.
(§6) A mixture of the DTNB solution (125 µL), enzyme solution (25 µL) and compounds solutions (25 µL, 3 different concentrations and once blank water) was prepared and incubated at 30 °C for 20 min. The substrate (25 µL, 4 different concentrations) was added to start the enzymatic reaction. The absorbance data (l = 415 nm) was recorded under a controlled temperature of 30 °C for 30 min at 1 min intervals. The substrate concentrations in the test were as follows: […]
(§7) determined as the quotient of the slopes (compound divided by blank) of the linear ranges.
(§8) The used substrate concentration was 0.625 mM. The absorbance data was recorded under a controlled temperature of 30 °C for 10 min.

[2] = molecular target: T1, butyrylcholinesterase (BChE, equine serum) (Equus caballus, UniProt P81908); experiment: Ellman's assay, butyrylcholinesterase inhibition; format: biochemical; settings: for Grade of inhibition in% BChE: c = 10 µM, mean ± SE
T1 construct: Butyrylcholinesterase (from equine serum) was purchased from Fluka; purchased Fluka; host or cells: equine serum
Source text: as §1
(§9) A TECAN SpectraFluorPlus working in the kinetic mode and measuring the absorbance at λ = 415 nm was used for the enzymatic studies. Acetylcholinesterase (from Electrophorus electricus), 5,5′-dithiobis-(2-nitrobenzoic acid) (DTNB) and acetylthiocholine iodide were purchased from Sigma. Butyrylcholinesterase (from equine serum) was purchased from Fluka. Preparation of the solutions, assay procedure, as well as molecular modeling conditions can be found in the Supplementary Materials.
as §2, §3, §4, §5, §6, §7, §8

[3] = molecular target: acetylcholinesterase (AChE, electric eel) (Electrophorus electricus, UniProt O42275); settings: c = 10 µM; mean ± SE
Source text: as §1, §9, §2, §3, §4, §5, §6, §7, §8

T1 sequence (P81908 whole entry): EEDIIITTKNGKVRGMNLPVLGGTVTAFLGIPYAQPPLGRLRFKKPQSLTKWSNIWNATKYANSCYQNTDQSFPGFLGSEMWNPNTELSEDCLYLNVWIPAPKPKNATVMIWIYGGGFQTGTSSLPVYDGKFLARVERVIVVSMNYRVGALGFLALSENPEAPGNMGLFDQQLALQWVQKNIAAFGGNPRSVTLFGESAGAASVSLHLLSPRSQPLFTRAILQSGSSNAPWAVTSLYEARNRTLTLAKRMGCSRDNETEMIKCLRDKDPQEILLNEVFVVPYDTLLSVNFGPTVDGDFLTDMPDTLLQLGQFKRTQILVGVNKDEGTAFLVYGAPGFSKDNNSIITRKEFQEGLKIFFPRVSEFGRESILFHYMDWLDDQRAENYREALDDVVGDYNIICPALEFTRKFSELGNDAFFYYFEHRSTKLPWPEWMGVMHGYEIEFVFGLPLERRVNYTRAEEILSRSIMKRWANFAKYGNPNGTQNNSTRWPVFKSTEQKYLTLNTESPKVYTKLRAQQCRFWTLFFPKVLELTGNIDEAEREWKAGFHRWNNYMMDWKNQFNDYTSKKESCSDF
acetylcholinesterase (AChE, electric eel), sequence (O42275 24-633): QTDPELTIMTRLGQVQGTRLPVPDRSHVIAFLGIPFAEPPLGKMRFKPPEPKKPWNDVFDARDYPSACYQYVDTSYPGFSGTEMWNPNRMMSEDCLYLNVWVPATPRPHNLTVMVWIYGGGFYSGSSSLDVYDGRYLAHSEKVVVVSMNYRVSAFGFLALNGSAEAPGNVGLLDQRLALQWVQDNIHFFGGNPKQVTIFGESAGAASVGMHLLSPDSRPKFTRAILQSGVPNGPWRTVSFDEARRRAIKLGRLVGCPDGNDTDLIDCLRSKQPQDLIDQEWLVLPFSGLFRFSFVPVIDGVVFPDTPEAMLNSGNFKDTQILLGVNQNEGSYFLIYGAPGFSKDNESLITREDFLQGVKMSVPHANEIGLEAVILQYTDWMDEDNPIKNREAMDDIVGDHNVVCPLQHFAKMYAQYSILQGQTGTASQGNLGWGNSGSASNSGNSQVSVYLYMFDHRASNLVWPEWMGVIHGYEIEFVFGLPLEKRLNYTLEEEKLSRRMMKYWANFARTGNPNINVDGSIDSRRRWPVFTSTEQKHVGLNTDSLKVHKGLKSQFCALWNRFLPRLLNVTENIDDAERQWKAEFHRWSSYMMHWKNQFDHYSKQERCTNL

SMILES	solubility under the conditions of the assay [1]	Type of Inhibition ([2]; BChE, equine serum)	Ki′ (uncompetitive inhibition) ([2]; BChE, equine serum, Ellman's assay) [µM]	Ki ([2]; BChE, equine serum, Ellman's assay, read-out: Ki (competitive inhibition)) [µM]	Grade of inhibition in% BChE [2] [%]	Grade of inhibition in% AChE [3]
CC(=O)O[C@H]1CC[C@@]2(C)C(CC[C@]3(C)C2CC=C2C4[C@@H](C)[C@H](C)CC[C@]4(C(=O)NCCN4CCCCC4)CC[C@]23C)C1(C)C (some centres unmarked) [Compound 41]	n.sol.	–	–	–	–	–
CC(=O)OC1CCC2(C)C(CCC3(C)C2CC=C2C4CC(C)(C)CCC4(C(=O)NCCN(C)C)CCC23C)C1(C)C (stereo not drawn) [Compound 22, (3β)-N-[2-(Dimethylamino)-ethyl]-3-acetyloxy-olean-12-en-28-amide]	n.sol.	–	–	–	–	–
CC(=O)OC1CC2(C)C(CCC3(C)C2CC=C2C4CC(C)(C)CCC4(C(=O)NCCN(C)C)CCC23C)C(C)(C)C1OC(C)=O (stereo not drawn) [Compound 23, (2α,3β)-N-[2-(Dimethylamino)ethyl]-2,3-diacetyloxy-olean-12-en-28-amide]	n.sol.	–	–	–	–	–
C[C@@H]1CC[C@]2(C(=O)NCCN)CC[C@]3(C)C(=CCC4[C@@]5(C)CC[C@H](O)C(C)(C)C5CC[C@]43C)C2[C@H]1C (some centres unmarked) [Compound 16]	–	mixed-type	12.15 ± 0.45	5.55 ± 0.12	64.10 ± 1.04	28.54 ± 0.51%
CC(=O)O[C@H]1CC[C@]2(C)[C@H]3CC[C@@H]4[C@H]5[C@H](C(C)=O)CC[C@]5(C(=O)NCCN(C)C)CC[C@@]4(C)[C@]3(C)CC[C@H]2C1(C)C [Compound 25]	–	mixed-type	–	–	88.49 ± 0.58	no inhibition
